Source: ChEMBL document CHEMBL1127699, “Inhibitors of acyl-CoA:cholesterol acyltransferase. 1. Synthesis and hypocholesterolemic activity of dibenz[b,e]oxepin-11-carboxanilides” (J Med Chem, 1994)

What was measured:
[1] = target: T1, Acyl-CoA:cholesterol acyltransferase (Oryctolagus cuniculus, UniProt Q95214); experiment: In vitro inhibitory activity against acyl coenzyme A:cholesterol acyltransferase in liver microsomes isolated from cholesterol-fed rabbits; parameters: species or system Microsome
T1 sequence (Q95214 whole entry): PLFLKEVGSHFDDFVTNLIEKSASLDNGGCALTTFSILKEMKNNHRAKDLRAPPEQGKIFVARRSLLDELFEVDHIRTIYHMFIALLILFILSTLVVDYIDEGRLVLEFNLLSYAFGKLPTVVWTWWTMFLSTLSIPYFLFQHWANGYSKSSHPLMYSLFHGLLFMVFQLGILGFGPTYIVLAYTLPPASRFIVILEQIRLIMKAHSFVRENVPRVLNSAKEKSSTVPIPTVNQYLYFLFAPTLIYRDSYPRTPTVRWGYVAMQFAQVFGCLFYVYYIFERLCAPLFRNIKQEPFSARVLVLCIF

Cricetinae gen. sp. [2] = experiment: In vivo hypocholesterolemic activity in golden hamsters, fed with a diet containing 2% cholesterol at a dose of 100 mg/kg; type: functional, Mesocricetus auratus
Mesocricetus auratus = experiment: In vivo hypocholesterolemic activity in golden hamsters, fed with a diet containing 2% cholesterol at a dose of 30 mg/kg, po
Cricetinae gen. sp. [3] = experiment: (§1) In vivo hypocholesterolemic activity in golden hamsters, fed with a diet containing 2% cholesterol at a dose of 10 mg/kg, po; type: functional
Cricetinae gen. sp. [4] = experiment: (§2) In vivo hypocholesterolemic activity in golden hamsters, fed with a diet containing 2% cholesterol at a dose of 30 mg/kg, po; type: functional, Mesocricetus auratus
Cricetinae gen. sp. [5] = experiment: as §1; type: functional, Mesocricetus auratus
[6] = target: T2, Acyl-CoA:cholesterol acyltransferase (Oryctolagus cuniculus) (UniProt Q95214); experiment: In vitro inhibitory activity against Acyl coenzyme A:cholesterol acyltransferase in liver microsomes isolated from cholesterol-fed rabbits; details: Microsome, concentration not given here
T2 sequence (whole entry): T1 sequence (Q95214 whole entry)

Cricetinae gen. sp. [7] = experiment: as §2; type: functional, Cricetulus griseus
Rattus norvegicus [8] = experiment: Effect on serum cholesterol levels in male Dawley rats at a dose of 3 mg/kg/day, po (p<=0.01); type: functional
Rattus norvegicus [9] = experiment: Effect on serum cholesterol levels in male Dawley rats at a dose of 30 mg/kg/day, po (p<=0.01); type: functional
Rattus norvegicus [10] = experiment: Effect on serum cholesterol levels in male Dawley rats at a dose of 10 mg/kg/day, po (p<=0.01); type: functional
Rattus norvegicus [11] = experiment: Effect on liver cholesterol levels in male Dawley rats at a dose of 3 mg/kg/day, po (p<=0.01); type: functional
Rattus norvegicus [12] = experiment: Effect on liver cholesterol levels in male Dawley rats at a dose of 10 mg/kg/day, po (p<=0.01); type: functional
Rattus norvegicus [13] = experiment: Effect on liver cholesterol levels in male Dawley rats at a dose of 30 mg/kg/day, po (p<=0.01); type: functional
Rattus norvegicus [14] = experiment: Effect on liver cholesterol levels in male Dawley rats at a dose of 1 mg/kg/day, po (p<=0.01); type: functional
Rattus norvegicus [15] = experiment: Effect on serum cholesterol levels in male Dawley rats at a dose of 1 mg/kg/day, po (p<=0.05); type: functional
[16] = target: T2, Acyl-CoA:cholesterol acyltransferase (Oryctolagus cuniculus); experiment: In vitro inhibitory activity against Acyl coenzyme A:cholesterol acyltransferase in liver microsomes isolated from cholesterol-fed rabbits at 1 uM; details: Microsome

Row | Structure (SMILES) | IC50 [1] | Reduction (Cricetinae gen. sp. [2]) | other results
1 | CC(C)c1cccc(C(C)C)c1NC(=O)C1c2ccccc2COc2ccc(CO)cc21 (configuration not stated) | 580 nM | – | –
2 | Cc1ccc2c(c1)C(C(=O)Nc1ccccc1C(C)C)c1ccccc1CO2 (configuration not stated) | 730 nM | 18% | –
3 | CC(C)(C)c1ccc2c(c1)C(C(=O)Nc1c(Cl)cccc1Cl)c1ccccc1CO2 (configuration not stated) | 420 nM | – | –
4 | Cc1cc2c(cc1C)C(C(=O)Nc1c(C(C)C)cccc1C(C)C)c1ccccc1CO2 (configuration not stated) | 64 nM | – | Reduction (Mesocricetus auratus): 27%
5 | COC(=O)c1cc(C)cc2c1OCc1ccccc1C2C(=O)Nc1c(C(C)C)cccc1C(C)C (configuration not stated) | 27 nM | – | Reduction (Mesocricetus auratus): 84%; Reduction (Cricetinae gen. sp. [3]): 28%
6 | Cc1cc(Br)c2c(c1)C(C(=O)Nc1c(C(C)C)cccc1C(C)C)c1ccccc1CO2 (configuration not stated) | 100 nM | – | Reduction (Mesocricetus auratus): 67%
7 | CC(C)c1cccc(C(C)C)c1NC(=O)C1c2ccccc2CCc2ccccc21 | 40 nM | – | Reduction (Cricetinae gen. sp. [4]): 89%; Reduction (Cricetinae gen. sp. [5]): 3%
8 | CC(C)c1cccc(C(C)C)c1NC(=O)C1c2ccccc2COc2ccc(Cl)cc21 (configuration not stated) | 150 nM | 97% | –
9 | Cc1cc(C(=O)O)c2c(c1)C(C(=O)Nc1c(C(C)C)cccc1C(C)C)c1ccccc1CO2 (configuration not stated) | – | – | inhibition [6]: 28%
10 | COC(=O)c1ccc2c(c1)C(C(=O)Nc1c(C(C)C)cccc1C(C)C)c1ccccc1CO2 (configuration not stated) | 180 nM | 89% | –
11 | O=C(Nc1c(Cl)cccc1Cl)C1c2ccccc2COc2cc(Br)ccc21 (configuration not stated) | 940 nM | – | –
12 | Cc1cc(C)c(NC(=O)C2c3ccccc3COc3ccc(C)cc32)c(C)c1 (configuration not stated) | 110 nM | – | –
13 | COc1cc(OC)c(NC(=O)C2c3ccccc3COc3ccc(C)cc32)c(OC)c1 (configuration not stated) | 580 nM | – | –
14 | Cc1ccc2c(c1)C(C(=O)Nc1c(C)cccc1Cl)c1ccccc1CO2 (configuration not stated) | 260 nM | – | –
15 | O=C(Nc1c(Cl)cccc1Cl)C1c2ccccc2COc2ccc(Br)cc21 (configuration not stated) | 74 nM | – | Reduction (Mesocricetus auratus): 0%
16 | CCc1cccc(CC)c1NC(=O)C1c2ccccc2COc2ccc(C(C)C)cc21 (configuration not stated) | 500 nM | 25% | –
17 | Cc1ccc2c(c1)C(C(=O)Nc1c(C(C)C)cccc1C(C)C)c1cc(Br)ccc1CO2 (configuration not stated) | 120 nM | – | Reduction (Mesocricetus auratus): 17%
18 | CC(C)c1cccc(C(C)C)c1NC(=O)C1c2ccccc2COc2ccc(C(=O)N(C)C)cc21 (configuration not stated) | 400 nM | – | –
19 | Cc1ccc2c(c1)C(C(=O)Nc1c(C)cccc1C)c1ccccc1CO2 (configuration not stated) | 350 nM | 25% | –
20 | CC(C)c1cccc(C(C)C)c1NC(=O)C1c2ccccc2COc2ccc(C#N)cc21 (configuration not stated) | 490 nM | – | eduction (Cricetinae gen. sp. [7]): -6%
21 | CC(C)c1cccc(C(C)C)c1NC(=O)C1c2ccccc2CSc2ccc(Br)cc21 (configuration not stated) | 150 nM | – | Reduction (Cricetinae gen. sp. [4]): 67%
22 | CSc1ccc2c(c1)C(C(=O)Nc1c(C(C)C)cccc1C(C)C)c1ccccc1CO2 (configuration not stated) | 7 nM | – | Reduction (Mesocricetus auratus): 5%
23 | CC(C)c1cccc(C(C)C)c1NC(=O)C1c2ccccc2COc2ccc(I)cc21 (configuration not stated) | 35 nM | – | Reduction (Mesocricetus auratus): 73%
24 | CC(C)c1cccc(C(C)C)c1NC(=O)C1c2cc(Br)ccc2COc2ccccc21 (configuration not stated) | 190 nM | – | Reduction (Mesocricetus auratus): 8%
25 | CCc1ccc2c(c1)C(C(=O)Nc1c(C(C)C)cccc1C(C)C)c1ccccc1CO2 (configuration not stated) | 130 nM | 51% | –
26 | CC(C)c1cccc(C(C)C)c1NC(=O)C1c2cc(Br)ccc2COc2ccc(Br)cc21 (configuration not stated) | 58 nM | – | Reduction (Mesocricetus auratus): 40%

Row | Structure (SMILES) | IC50 [1] | Reduction (Cricetinae gen. sp. [2]) | other results
27 | Cc1ccc2c(c1)C(C(=O)Nc1ccccc1)c1ccccc1CO2 (configuration not stated) | – | 10% | inhibition [6]: 15%
28 | CC(C)c1cccc(C(C)C)c1NC(=O)C1c2ccccc2COc2ccccc21 (configuration not stated) | 94 nM | 2% | –
29 | CC(C)c1cccc(C(C)C)c1NC(=O)C1c2ccccc2OCc2ncccc21 (configuration not stated) | 640 nM | – | –
30 | CC(C)c1cccc(C(C)C)c1NC(=O)C1c2ccccc2COc2cc(Br)ccc21 (configuration not stated) | 180 nM | -2% | –
31 | CCc1cccc(CC)c1NC(=O)C1c2ccccc2COc2ccc(C)cc21 (configuration not stated) | 270 nM | 49% | –
32 | CC(C)c1cccc(C(C)C)c1NC(=O)C1c2ccccc2COc2ccc([N+](=O)[O-])cc21 (configuration not stated) | 240 nM | – | –
33 | CCCCCCCN(Cc1ccc(CC(C)(C)C)cc1)C(=O)Nc1ccc(F)cc1F [CL-277082] | – | – | Reduction (Cricetinae gen. sp. [4]): 71%; Reduction (Cricetinae gen. sp. [5]): 35%
34 | CC(C)c1cccc(C(C)C)c1NC(=O)C1c2ccccc2COc2ccc(F)cc21 (configuration not stated) | 210 nM | 53% | –
35 | O=C(Nc1ccc(F)cc1F)C1c2ccccc2COc2ccc(Br)cc21 (configuration not stated) | 580 nM | – | –
36 | Cc1ccc2c(c1)C(C(=O)Nc1c(Cl)cccc1Cl)c1ccccc1CO2 (configuration not stated) | 190 nM | 25% | –
37 | CCc1cccc(CC)c1NC(=O)C1c2ccccc2COc2ccc(Br)cc21 (configuration not stated) | 250 nM | 64% | –
38 | CC(C)c1cccc(C(C)C)c1/N=C(\S)C1c2ccccc2COc2ccc(Br)cc21 (configuration not stated) | – | – | inhibition [6]: 33%
39 | CC(C)c1cccc(C(C)C)c1NC(=O)C1c2ccccc2C(=O)N(C)c2ccc(Br)cc21 (configuration not stated) | 240 nM | – | –
40 | Cc1ccc2c(c1)C(C(=O)Nc1c(C(C)C)cccc1C(C)C)c1ccccc1CO2 (configuration not stated) | 50 nM | 106% | Reduction (Mesocricetus auratus): 70%
41 | Cc1cccc(C)c1NC(=O)C1c2ccccc2COc2ccc(C(C)C)cc21 (configuration not stated) | 360 nM | – | –
42 | Cc1ccc2c(c1)C(C(=O)Nc1c(Br)cccc1Br)c1ccccc1CO2 (configuration not stated) | 190 nM | 6% | –
43 | Cc1cccc(C)c1NC(=O)C1c2ccccc2COc2ccc(C(C)(C)C)cc21 (configuration not stated) | 500 nM | -42% | –
44 | CC(C)c1cccc(C(C)C)c1NC(=O)C1c2ccccc2CCc2ccc(Br)cc21 (configuration not stated) | 39 nM | – | Reduction (Cricetinae gen. sp. [5]): 42%
45 | COc1ccc2c(c1)C(C(=O)Nc1c(C(C)C)cccc1C(C)C)c1ccccc1CO2 (configuration not stated) | 140 nM | – | Reduction (Mesocricetus auratus): 22%
46 | CC(C)c1cccc(C(C)C)c1NC(=O)C1c2ccccc2COc2ccc(Br)cc21 (configuration not stated) | 23 nM | 143% | Cholesterol level (Rattus norvegicus [8]): 167 mg/dL; Cholesterol level (Rattus norvegicus [9]): 108 mg/dL; Cholesterol level (Rattus norvegicus [10]): 114 mg/dL; Cholesterol level (Rattus norvegicus [11]): 15 mg/g; Cholesterol level (Rattus norvegicus [12]): 10.4 mg/g; Reduction (Mesocricetus auratus): 114%; Cholesterol level (Rattus norvegicus [13]): 6.3 mg/g; Cholesterol level (Rattus norvegicus [14]): 19.2 mg/g; Cholesterol level (Rattus norvegicus [15]): 214 mg/dL; Reduction (Cricetinae gen. sp. [3]): 101%
47 | CC(C)c1cccc(C(C)C)c1NC(=O)C1c2ccccc2COc2ccc(C(=O)O)cc21 (configuration not stated) | – | – | inhibition [6]: 1%
48 | CC(C)c1cccc(C(C)C)c1NC(=O)C1c2ccccc2C=Cc2ccccc21 | 25 nM | – | Reduction (Cricetinae gen. sp. [4]): 73%
49 | Cc1ccc2c(c1)C(/C(S)=N/c1c(C(C)C)cccc1C(C)C)c1ccccc1CO2 (configuration not stated) | – | – | inhibition [16]: 15%
50 | CC(C)c1cccc(C(C)C)c1NC(=O)C1c2cc(Br)ccc2OCc2ncccc21 (configuration not stated) | 78 nM | – | Reduction (Mesocricetus auratus): 47%
51 | CC(C)c1cccc(C(C)C)c1NC(=O)C1c2ccccc2COc2ccc(C(F)(F)F)cc21 (configuration not stated) | 160 nM | – | Reduction (Mesocricetus auratus): 63%
52 | Cc1ccc2c(c1)C(C(=O)Nc1c(C(C)C)cccc1C(C)C)c1ccccc1CC2 (configuration not stated) | 55 nM | – | Reduction (Cricetinae gen. sp. [4]): 93%; Reduction (Cricetinae gen. sp. [5]): -1%
